The text below walks through data of PMC5706701, “Development of a homogenous high-throughput assay for inositol hexakisphosphate kinase 1 activity” (PLoS ONE, 2017).

Structures can show the parent of a compound that is named as a salt. Where two headings read alike, the source gives them in different places.

The target in the test is T1, Human IP6K1 (Homo sapiens, UniProt Q92551).
T1 construct: GST (N, cleaved yes); made in house; host or cells: C43 E. coli, pGEX-6P-2
In words: IP6K1 high-throughput screen of the Sigma LOPAC (ADP-Glo Max, single point).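 Note: final compound concentration 10µM in 5% DMSO.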 It is filed as biochemical. In general terms: ADP-Glo first removes unused ATP, then detects ADP through luciferase.

Where [1] appears, read: LOPAC single-point screen, ADP-Glo Max luminescence raw signal per well.
Setting [2] is: LOPAC single-point screen, Z-score from plate average and StDev.
Setting [3] is: Sigma LOPAC single-point screen, ADP-Glo Max raw signal per well.
Where [4] appears, read: Sigma LOPAC single-point screen, Z-score from plate average and StDev.
[5] abbreviates: LOPAC single-point screen, Z-score relative to plate average and StDev.
[6] abbreviates: LOPAC single-point screen, ADP-Glo Max raw signal per well.
Where [7] appears, read: LOPAC single-point screen, Z-score from raw signal with plate average and StDev.
Where [8] appears, read: LOPAC single-point screen, Z-score against plate average and StDev.

T1 sequence (Q92551 whole entry): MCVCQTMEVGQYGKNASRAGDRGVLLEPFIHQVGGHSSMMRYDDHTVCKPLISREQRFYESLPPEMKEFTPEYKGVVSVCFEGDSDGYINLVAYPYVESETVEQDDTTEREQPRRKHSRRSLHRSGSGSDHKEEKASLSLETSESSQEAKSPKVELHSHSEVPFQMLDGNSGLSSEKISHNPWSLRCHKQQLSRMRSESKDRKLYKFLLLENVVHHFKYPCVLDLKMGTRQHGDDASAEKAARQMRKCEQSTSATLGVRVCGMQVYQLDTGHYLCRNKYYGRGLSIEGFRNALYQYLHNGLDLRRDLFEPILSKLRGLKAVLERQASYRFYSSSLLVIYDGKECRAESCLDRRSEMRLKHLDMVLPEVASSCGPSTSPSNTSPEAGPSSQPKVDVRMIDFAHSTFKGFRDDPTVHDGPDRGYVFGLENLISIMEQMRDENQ

With `Cl.NO` [Hydroxylamine hydrochloride], the “Raw Signal” value under setting [1] is 61813. Under setting [2], this molecule displayed a Z-score of 1.35.

On to `CC#CCOC(=O)c1c(C)nc2sc3c(c2c1N)CCC(O)C3` (stereo not drawn) [SB 205384], for which, under setting [3], the “Raw Signal” value is 57931. Further, the Z-score under setting [4] is given as 0.3705.

Take `COc1cc([C@@H]2c3cc4c(cc3[C@H](O)[C@H]3COC(=O)[C@H]23)OCO4)cc(OC)c1OC` [Podophyllotoxin]: the “Raw Signal” value under setting [1] was determined as 50929. Under setting [5], this molecule yielded a Z-score of -0.5821.

Turning to `Cl.NC[C@@H]1O[C@H](C23CC4CC(CC(C4)C2)C3)Cc2c1ccc(O)c2O` [A-77636 hydrochloride], the “Raw Signal” value under setting [6] is given as 56453. The Z-score under setting [7] is -0.2572.

Regarding `CNCCc1ccc(O)c(O)c1.Cl` [N-Methyldopamine hydrochloride], the “Raw Signal” value under setting [1] stood at 45936. This molecule showed a Z-score under setting [5] of -1.875.

As to `Br.C=CCN1CCc2cc(O)c(O)cc2C(c2ccc(O)cc2)C1` (racemic) [(±)-SKF 38393, N-allyl-, hydrobromide], the “Raw Signal” value under setting [6] is reported as 54138. Besides, under setting [7], the Z-score is -0.3664.

Consider `Cc1[nH]c2ccc(O)cc2c1CCN.O=C(O)/C=C\C(=O)O` [2-Methyl-5-hydroxytryptamine maleate], for which the “Raw Signal” value under setting [6] is 56336. Besides, under setting [8], the Z-score came out at 0.3264.

As to `N=C(N)N1CCc2ccccc2C1` [Debrisoquin sulfate], under setting [1], the “Raw Signal” value was 61933. Under setting [2], the Z-score is given as 1.3741.

For `OCCN(CCO)c1nc(N2CCCCC2)c2nc(N(CCO)CCO)nc(N3CCCCC3)c2n1` [Dipyridamole], under setting [1], the “Raw Signal” value was found to be 52429. Further, under setting [5], the Z-score is -0.5561.

Consider `NNc1nncc2ccccc12` [Hydralazine hydrochloride], for which the “Raw Signal” value under setting [6] is recorded as 53853. The same molecule gave a Z-score under setting [7] of -0.2669.

In the case of `Nc1nc(N)c2nc(CNc3ccc(C(=O)N[C@@H](CCC(=O)O)C(=O)O)cc3)cnc2n1` [Aminopterin], under setting [6], the “Raw Signal” value is listed as 55514. The molecule further returned a Z-score under setting [7] of -0.4225.

On to `CC(O)C(C)OC(=O)[C@@H]1C[C@@H]2c3cccc4c3c(cn4C(C)C)C[C@H]2N(C)C1.O=C(O)/C=C\C(=O)O` (stereo partly drawn) [LY-53,857 maleate], for which, under setting [3], the “Raw Signal” value came to 58270. This molecule had a Z-score under setting [4] of 0.6514.

With `O=C(O)C=Cc1c[nH]cn1` [4-Imidazoleacrylic acid], under setting [6], the “Raw Signal” value is recorded as 54766. Further, the Z-score under setting [7] is recorded as -0.2444.

Consider `CCC1(C)CC(=O)NC1=O` (stereo not drawn) [Ethosuximide], for which the “Raw Signal” value under setting [3] worked out at 57090. In addition, under setting [4], the Z-score was 0.3905.

Consider `Nc1ncnc2c1nc(Sc1ccc(Cl)cc1)n2C1OC2COP(=O)(O)OC2C1O` (stereo in doubt) [8-(4-Chlorophenylthio)-cAMP sodium], for which the “Raw Signal” value under setting [1] is recorded as 54805. The same molecule yielded a Z-score under setting [5] of -0.5474.

As for `CN(C)CCCN1c2ccccc2Sc2ccc(Cl)cc21` [Chlorpromazine hydrochloride], the “Raw Signal” value under setting [3] is recorded as 63674. In addition, under setting [4], the Z-score is listed as 1.015.

Take `CCOC(=O)C1=C[C@]2(CC)CCCN3CCc4c(n1c1ccccc41)[C@@H]32` [Vinpocetine]: the “Raw Signal” value under setting [3] is 59958. Further, under setting [4], the Z-score was found to be 0.7643.

`O=C(CCc1ccc(O)cc1)c1c(O)cc(O)cc1O` [Phloretin]: the “Raw Signal” value under setting [3] came out at 58655. Besides, the Z-score under setting [4] came out at 0.5112.

`CCCCC1C(=O)N(c2ccccc2)N(c2ccccc2)C1=O` [Phenylbutazone] had a Z-score under setting [7] of -0.2764.

On to `NCC(CP(=O)(O)O)c1ccc(Cl)cc1` (stereo not drawn) [Phaclofen], for which, under setting [3], the “Raw Signal” value amounted to 61057. Under setting [4], this molecule gave a Z-score of 0.9779.

Take `CC(N)C(O)c1ccc(O)c(O)c1` (single isomer, unassigned; (-)) [(-)-alpha-Methylnorepinephrine]: the “Raw Signal” value under setting [1] was 45337. The molecule also registered a Z-score under setting [5] of -1.996.

Regarding `CC(=O)O[C@H]1C[C@@H]2CC[C@@H]3[C@H](CC[C@@]4(C)[C@H]3C[C@H]([N+]3(C)CCCCC3)[C@@H]4OC(C)=O)[C@@]2(C)C[C@@H]1[N+]1(C)CCCCC1` [Pancuronium bromide], the “Raw Signal” value under setting [3] is 59072. This molecule also registered a Z-score under setting [4] of 0.7861.

With `Cl.NC1CCN(c2cccc(Cl)n2)CC1` [SR 57227A], under setting [1], the “Raw Signal” value was found to be 53376. This molecule registered a Z-score under setting [5] of -0.5144.

Regarding `Br.C=CCN1CCc2c(cc(O)c(O)c2Cl)C(c2ccccc2)C1` (racemic) [(±)-Chloro-APB hydrobromide], the “Raw Signal” value under setting [3] was 58189. The same molecule yielded a Z-score under setting [4] of 0.6137.

As to `CCS(=O)(=O)Nc1cccc(C(=C2CCCCC2)c2cnc[nH]2)c1` [A-315456], the “Raw Signal” value under setting [6] is 57716. Further, the Z-score under setting [8] is listed as -0.03471.

Regarding `CCOC(=O)c1cnc2c(cnn2CC)c1NN=C(C)C` [Etazolate hydrochloride], under setting [1], the “Raw Signal” value is on record as 51155. The same molecule registered a Z-score under setting [5] of -0.8148.

For the molecule `CN1C[C@H](O)[C@@H](O)[C@H](O)[C@H]1CO` [N-Methyl-1-deoxynojirimycin], the “Raw Signal” value under setting [6] is 53171. Under setting [7], this molecule gave a Z-score of -0.2054.

Molecule `O=C(O)/C(=C/c1c(C(=O)O)[nH]c2cc(Cl)cc(Cl)c12)c1ccccc1` [MDL 105,519] yielded a Z-score of 0.03839.

On to `Cc1cnc(NC(=O)C2=C(O)c3ccccc3S(=O)(=O)N2C)s1` [Meloxicam sodium], for which the “Raw Signal” value under setting [6] was determined as 55155. The molecule also had a Z-score under setting [8] of 0.128.

Consider `C[C@H](O)C(=O)C1=Nc2c(nc(N)[nH]c2=O)NC1` [Sepiapterin], for which the “Raw Signal” value under setting [3] is on record as 58753. Besides, under setting [4], the Z-score is on record as 0.5302.

As to `O.c1cnc2c(c1)ccc1cccnc12` [1,10-Phenanthroline monohydrate], under setting [1], the “Raw Signal” value is recorded as 52659. Besides, under setting [5], the Z-score was -0.6537.

With `CCCC1O[C@@H]2C[C@H]3[C@@H]4CCC5=CC(=O)C=C[C@]5(C)[C@H]4[C@@H](O)C[C@]3(C)[C@]2(C(=O)CO)O1` (stereo partly drawn) [Budesonide], the “Raw Signal” value under setting [1] was found to be 54430. This molecule also had a Z-score under setting [5] of -0.6135.

On to `CC(C)(C)NCC(O)c1ccc(O)c(CO)c1.CC(C)(C)NCC(O)c1ccc(O)c(CO)c1.O=S(=O)(O)O` (stereo not drawn) [Albuterol hemisulfate], for which the “Raw Signal” value under setting [6] was 54773. The Z-score under setting [7] is recorded as -0.243.

Turning to `CC(C)NC[C@@H](O)COc1ccc(CC(N)=O)cc1` [R(+)-Atenolol], under setting [1], the “Raw Signal” value is reported as 54301. Under setting [5], this molecule had a Z-score of -0.6362.

Turning to `COC(=O)C1=C(C)NC(C)=C(C(=O)OC)C1c1ccccc1[N+](=O)[O-]` [Nifedipine], the “Raw Signal” value under setting [3] is 59653. The Z-score under setting [4] came to 0.8837.

As for `O=C(Nc1cccc(C(=O)Nc2ccc(S(=O)(=O)O)c3cc(S(=O)(=O)O)cc(S(=O)(=O)O)c23)c1)Nc1cccc(C(=O)Nc2ccc(S(=O)(=O)O)c3cc(S(=O)(=O)O)cc(S(=O)(=O)O)c23)c1` [NF 023], the “Raw Signal” value under setting [1] amounted to 39481. This molecule gave a Z-score under setting [5] of -2.506.

As for `CC1(C)NC(=O)N(c2ccc([N+](=O)[O-])c(C(F)(F)F)c2)C1=O` [Nilutamide], the “Raw Signal” value under setting [3] is recorded as 62066. Under setting [4], this molecule showed a Z-score of 1.289.

Consider `CN1CCc2cccc3c2[C@H]1Cc1ccc(O)c(O)c1-3` [Apomorphine hydrochloride hemihydrate], for which, under setting [1], the “Raw Signal” value worked out at 53248. Moreover, the Z-score under setting [5] is -0.8217.

Take `Nc1nc(Nc2ccccc2)nc2c1ncn2[C@@H]1O[C@H](CO)[C@@H](O)[C@H]1O` [2-Phenylaminoadenosine]: the “Raw Signal” value under setting [6] was found to be 55292. This molecule showed a Z-score under setting [7] of -0.1422.

Consider `C#C[C@]1(O)CC[C@H]2[C@@H]3CCC4=Cc5oncc5C[C@]4(C)[C@H]3CC[C@@]21C` [Danazol], for which, under setting [6], the “Raw Signal” value came out at 54357. This molecule also returned a Z-score under setting [7] of -0.1645.

In the case of `CCN(CC)CCNC(=O)c1cc(S(C)(=O)=O)ccc1OC` [Tiapride hydrochloride], the “Raw Signal” value under setting [3] turned out to be 58277. This molecule gave a Z-score under setting [4] of 0.4378.

Take `Nc1ncnc2c1ncn2[C@@H]1O[C@H](COP(=O)(O)CP(=O)(O)OP(=O)([O-])[O-])[C@@H](O)[C@H]1O.[Li+].[Li+]`: the “Raw Signal” value under setting [1] is 51012. Also, the Z-score under setting [5] is recorded as -0.5682.

On to `CNc1cc(NS(=O)(=O)c2ccc(N)cc2)nc(NC)n1.Cl.Cl` [Ro 04-6790 dihydrochloride], for which the “Raw Signal” value under setting [1] was 63150. The Z-score under setting [2] was determined as 1.384.

Consider `CNC(=O)c1cc2c(cn1)[nH]c1ccccc12` [N-Methyl-beta-carboline-3-carboxamide], for which, under setting [3], the “Raw Signal” value amounted to 57600. This molecule displayed a Z-score under setting [4] of 0.4941.

For the molecule `CN(C)[C@@H]1C(O)=C(C(N)=O)C(=O)[C@@]2(O)C(O)=C3C(=O)c4c(O)ccc(Cl)c4[C@@H](O)[C@H]3C[C@@H]12` [Demeclocycline hydrochloride], the “Raw Signal” value under setting [1] is recorded as 42734. This molecule displayed a Z-score under setting [5] of -2.525.

Regarding `NC1CCN(O)C1=O` (racemic) [(±)-HA-966], the “Raw Signal” value under setting [6] is recorded as 57782. Moreover, the Z-score under setting [8] was -0.02309.

Regarding `CC(C)NCC(O)c1ccc(O)c(O)c1.Cl` (racemic) [(±)-Isoproterenol hydrochloride], under setting [3], the “Raw Signal” value is 57305. In addition, under setting [4], the Z-score was determined as 0.4892.

With `COc1ccc2c(c1)c(CC(=O)O)c(C)n2Cc1ccc(Cl)cc1`, the “Raw Signal” value under setting [3] came to 64773. Further, under setting [4], the Z-score was determined as 1.208.

On to `Cl.Nc1c2c(nc3ccccc13)CCCC2`, for which the “Raw Signal” value is reported as 49916 and the Z-score is on record as -1.409.

As for `O=c1c(-c2ccc(O)cc2)coc2cc(O)ccc12` [Daidzein], the “Raw Signal” value under setting [3] stood at 57311. In addition, the Z-score under setting [4] stood at 0.4354.

Take `CCN(CC)C(C)C(=O)N1c2ccccc2Sc2ccccc21.Cl` (stereo not drawn): the “Raw Signal” value under setting [6] amounted to 55206. The molecule further gave a Z-score under setting [8] of 0.007914.

For `CN(C)C(=O)C(CCN1CCC(O)(c2ccc(Cl)cc2)CC1)(c1ccccc1)c1ccccc1` [Loperamide hydrochloride], the “Raw Signal” value under setting [1] is recorded as 51056. In addition, the Z-score under setting [5] is -0.5608.
